Results from patent EP1403247A1, “N-Alkanoylphenylalanine derivatives” (F.HOFFMANN-LA ROCHE AG, priority 1997, dated 1999).
pIC50: −log10 of the molar value.

Columns and labels:
VLA-4 (a4b1 integrin) [1] = target: T1, VLA-4 (a4b1 integrin) (Homo sapiens, UniProt P05556+P13612); assay: VLA-4 / VCAM-1 Screening Assay (solid-phase, dual antibody ELISA); conditions: Ramos cell-derived VLA-4 binding to immobilized recombinant human VCAM-1; 1 mM MnCl2, 2 hr at 37 °C
T1 construct: followed by 10 µl of Ramos cell-derived VLA-4; endogenous in cells; host or cells: Ramos cells (VLA-4 derived from them; method of extraction or purification not described)
Procedure: VLA-4 / VCAM-1 Screening Assay
VLA-4 antagonist activity, defined as ability to compete for binding to immobilized VCAM-1, was quantitated using a solid-phase, dual antibody ELISA. VLA-4 (a4b1 integrin) bound to VCAM-1 is detected by a complex of anti-integrin b1 antibody: HRP-conjugated anti-mouse IgG: chromogenic substrate (K-Blue). Initially, this entailed coating 96 well plates (Nunc Maxisorp) with recombinant human VCAM-1 (0.4 µg in 100 µl PBS), sealing each plate and then allowing the plates to stand at 4°C for ^~18 hr. […] On the day of assay, all plates are washed twice with VCAM Assay Buffer (200 µl/well of 50 mM Tris-HCl, 100 mM NaCl, 1 mM MnCl2, 0.05% Tween 20; pH 7.4). Test compounds are dissolved in 100% DMSO and then diluted 1:20 in VCAM Assay Buffer supplemented with 1mg/mL BSA (i.e., final DMSO = 5%). […] 100 µl per well of each dilution is added to the VCAM-coated plates, followed by 10 µl of Ramos cell-derived VLA-4. These plates are sequentially mixed on a platform shaker for 1 min, incubated for 2 hr at 37 °C, and then washed four times with 200 µl/well VCAM Assay Buffer. 100 µl of mouse anti-human integrin b1 antibody is added to each well (0.6 µg/mL in VCAM Assay Buffer + 1mg/mL BSA) and allowed to incubate for 1 hr at 37°C. At the conclusion of this incubation period, all plates are washed four times with VCAM Assay Buffer (200 µl/well). A corresponding second antibody, HRP-conjugated goat anti-mouse IgG (100 µl per well @ 1:800 dilution in VCAM Assay Buffer + 1mg/mL BSA), is then added to each well, followed by a 1 hr incubation at room temperature and concluded by three washes (200µl/well) with VCAM Assay Buffer. Color development is initiated by addition of 100 µl K-Blue per well (15 min incubation, room temp) and terminated by addition of 100 µl Red Stop Buffer per well. […] Results are calculated as % inhibition of total binding (i.e., VLA-4 + VCAM-1 in the absence of test compound).

VLA-4 (a4b1 integrin) [2] = target: T1, VLA-4 (a4b1 integrin); assay: Ramos (VLA-4) / VCAM-1 Cell-Based Screening Assay (Ramos-VCAM-1 cell adhesion assay); conditions: Calcein-AM labeled Ramos cells adhering to immobilized recombinant human VCAM-1; 45 min at room temperature
Description: Ramos (VLA-4) / VCAM-1 Cell-Based Screening Assay Protocol
Calcein-AM was purchased from Molecular Probes Inc.
VLA-4 (a4b1 integrin) antagonist activity, defined as ability to compete with cell-surface VLA-4 for binding to immobilized VCAM-1, was quantitated using a Ramos-VCAM-1 cell adhesion assay. Ramos cells bearing cell-surface VLA-4, were labeled with a fluorescent dye (Calcein-AM) and allowed to bind VCAM-1 in the presence or absence of test compounds.
Initially, this entailed coating 96 well plates (Nunc Maxisorp) with recombinant human VCAM-1 (100 ng in 100 µl PBS), sealing each plate and allowing the plates to stand at 4°C for ~18 hr. The VCAM-coated plates were subsequently washed twice with 0.05% Tween-20 in PBS, and then blocked for 1hr (room temperature) with 200 µl of Blocking Buffer (1% BSA/0.02% thimerosal) to reduce non-specific binding. Following the incubation with Blocking Buffer, plates were inverted, blotted and the remaining buffer aspirated. Each plate was then washed with 300 µl PBS, inverted and the remaining PBS aspirated.
Test compounds were dissolved in 100% DMSO and then diluted 1:25 in VCAM Cell Adhesion Assay Buffer (4 mM CaCl2, 4 mM MgCl2 in 50 mM TRIS-HCl, pH 7.5) (final DMSO = 4%). […] 100 µl/well of each dilution was added to the VCAM-coated plates, followed by 100 µl of Ramos cells (200,000 cells/well in 1% BSA/PBS). […] Plates were inverted to remove non-adherent cells, blotted and 300 µl/well PBS added. Plates were again inverted, blotted and the remaining buffer gently aspirated. 100 µl Lysis Buffer (0.1% SDS in 50 mM TRIS-HCl, pH 8.5) was added to each well and agitated for 2 min on a rotary shaking platform.

T1 sequence (P13612 34-1032): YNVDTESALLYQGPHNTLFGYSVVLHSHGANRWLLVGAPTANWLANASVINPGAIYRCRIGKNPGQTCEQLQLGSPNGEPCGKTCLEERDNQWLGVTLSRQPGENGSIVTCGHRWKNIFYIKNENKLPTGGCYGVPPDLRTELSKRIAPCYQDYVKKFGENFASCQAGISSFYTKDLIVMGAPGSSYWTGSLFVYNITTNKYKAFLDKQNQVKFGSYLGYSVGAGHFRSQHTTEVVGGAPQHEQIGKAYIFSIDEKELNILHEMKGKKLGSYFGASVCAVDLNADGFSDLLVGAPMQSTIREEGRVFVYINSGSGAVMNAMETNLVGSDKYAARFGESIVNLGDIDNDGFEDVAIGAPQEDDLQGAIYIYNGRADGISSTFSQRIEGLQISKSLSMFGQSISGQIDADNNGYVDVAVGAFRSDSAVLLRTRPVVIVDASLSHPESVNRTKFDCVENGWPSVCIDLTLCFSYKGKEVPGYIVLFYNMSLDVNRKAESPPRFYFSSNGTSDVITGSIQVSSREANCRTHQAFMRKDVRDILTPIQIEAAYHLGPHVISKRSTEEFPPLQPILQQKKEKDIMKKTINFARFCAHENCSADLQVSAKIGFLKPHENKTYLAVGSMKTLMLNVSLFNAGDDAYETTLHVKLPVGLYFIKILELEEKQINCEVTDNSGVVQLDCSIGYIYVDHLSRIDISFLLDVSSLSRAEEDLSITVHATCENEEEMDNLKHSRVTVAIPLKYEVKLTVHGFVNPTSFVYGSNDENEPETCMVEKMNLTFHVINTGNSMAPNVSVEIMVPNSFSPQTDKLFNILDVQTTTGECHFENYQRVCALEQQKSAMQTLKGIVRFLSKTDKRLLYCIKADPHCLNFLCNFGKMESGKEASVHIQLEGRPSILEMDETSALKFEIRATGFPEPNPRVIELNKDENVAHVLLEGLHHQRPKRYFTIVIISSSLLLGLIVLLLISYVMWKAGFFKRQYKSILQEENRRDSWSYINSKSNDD
T1 sequence (P05556 21-798): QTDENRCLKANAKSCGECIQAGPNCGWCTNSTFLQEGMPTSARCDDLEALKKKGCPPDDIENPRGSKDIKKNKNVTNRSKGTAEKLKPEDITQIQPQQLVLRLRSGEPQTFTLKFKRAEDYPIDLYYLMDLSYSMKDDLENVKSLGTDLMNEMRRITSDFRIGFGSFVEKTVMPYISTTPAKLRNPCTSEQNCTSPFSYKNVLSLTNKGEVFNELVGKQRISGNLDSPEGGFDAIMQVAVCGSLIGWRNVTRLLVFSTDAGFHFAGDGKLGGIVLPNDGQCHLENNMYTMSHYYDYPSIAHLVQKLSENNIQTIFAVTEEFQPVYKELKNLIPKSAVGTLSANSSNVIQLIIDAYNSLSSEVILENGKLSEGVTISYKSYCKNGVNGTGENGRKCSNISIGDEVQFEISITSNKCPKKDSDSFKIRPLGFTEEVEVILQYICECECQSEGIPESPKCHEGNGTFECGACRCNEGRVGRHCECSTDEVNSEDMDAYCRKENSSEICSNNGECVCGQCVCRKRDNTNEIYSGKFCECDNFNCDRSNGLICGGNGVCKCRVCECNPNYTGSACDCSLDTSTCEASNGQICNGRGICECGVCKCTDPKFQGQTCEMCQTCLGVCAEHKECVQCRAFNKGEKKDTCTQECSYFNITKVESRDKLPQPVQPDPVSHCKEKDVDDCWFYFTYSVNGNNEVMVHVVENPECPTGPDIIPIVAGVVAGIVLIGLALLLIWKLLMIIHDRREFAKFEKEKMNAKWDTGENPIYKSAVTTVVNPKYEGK

pIC50 (VLA-4 (a4b1 integrin) [1])	pIC50 (VLA-4 (a4b1 integrin) [2])	SMILES
9.29		O=C(NC(Cc1ccc(NC(=O)c2c(Cl)cccc2Cl)cc1)C(=O)O)c1ccccc1Cc1ccccc1 [Example 31, 4-[[(2,6-dichlorophenyl)carbonyl]amino]-N-[[(2-phenylmethyl)phenyl]carbonyl]-L-phenylalanine]
9.20	7.66	COc1ccc(Br)c(C(=O)NC(Cc2ccc(NC(=O)c3c(C)ccnc3C)cc2)C(=O)O)c1 (stereo not drawn) [Example 108]
8.35	6.36	Cc1cc(CC(NC(=O)c2c(C)cccc2Cl)C(=O)O)ccc1NC(=O)CCc1cccc(O)c1 (stereo not drawn) [Example 120]
8.24	6.29	Cc1cc(CC(NC(=O)c2c(C)cccc2Cl)C(=O)O)ccc1NC(=O)Cc1cccc(O)c1 (stereo not drawn) [Example 121]
8.77	6.50	Cc1cc(CC(NC(=O)c2c(C)cccc2Cl)C(=O)O)ccc1NC(=O)c1c(Cl)cccc1Cl (stereo not drawn) [Example 123]
